What was measured:
BJ fibroblasts = experiment: MTS cell proliferation assay, BJ fibroblasts; type: cell-based, human; settings: for IC50: Homo sapiens, Fibroblast
Method: Human BJ fibroblasts (American Type Cell Culture Collection, Manassas, VA, USA, CRL-2522) and human prostate cancer cell line PC-3 (American Type Cell Culture Collection, Manassas, VA, USA, CRL-1435), derived from bone metastases, were routinely grown in […]) Medium (ThermoFisher, Waltham, MA, USA, 21127-022) and supplemented with heat-inactivated 10% Fetal Bovine Serum (Biowest, France, […]) and 1% antibiotic solution (Biowest, Nuaillé, France, L0022), in a humidified 5% CO2 atmosphere at 37 °C. Cells were used between 3 and 20 passages. The 96-well plates were prepared by seeding 5 × 10^3 or 2.5 × 10^3 cells per well, for 24 and 48 h treatments, respectively, with at least five technical and two biological repeats. […] The cells were treated with either the Z conformer of 17j, with continuous illumination with 525 nm light, or the E conformer. The Z conformer was prepared by illuminating its DMSO solution with 525 nm light overnight. The cell proliferation was analyzed with CellTiter Aqueous One Solution Cell Proliferation MTS (3-(4,5-dimethylthiazol-2-yl)-5-(3-carboxymethoxyphenyl)-2-(4-sulfophenyl)-2H-tetrazolium) Assay (Promega, Madison, WI, USA, G5430) after 24 or 48 h of treatment. The absorbance was measured at 490 and 670 nm with FLUOStar Omega plate reader (BMG LABTECH GmbH, Ortenberg, Germany). The statistical analysis was performed within R 4.5.1 project. […] The log-logistic four parametric model (4PL), with the lower limit boundary set to 0 and group fitting, was used, as available in the drc package, to fit cell proliferation data. The residuals were checked for normality with QQ and density plots and considered as sufficiently normally distributed. The assessment metrics for model goodness of fit were performed with functions available in the drc package and with custom ones. When appropriate, the delta method was applied to obtain error of central tendency. To assess the goodness of fit for each of the biological replicates, deviance R^2 (DR^2) was calculated and assessed. […] The DR^2 was calculated according to the following Equation: 1 - (Dres/Dnull), where Dres-residual deviance and Dnull-null deviance (deviance of the model with mean as a predicted value). The null hypothesis was assessed with the two-way ANOVA with Tukey's post hoc test for multiple comparisons or with the two-way t-test when only two groups were compared. The differences in the cell cycle percentages were assessed with the two-way ANOVA with Tukey's post hoc test.

PC-3 cells = experiment: Cell cycle analysis by flow cytometry, PC-3; type: cell-based, human; settings: Z conformer, 24 h; for percentage of cells in the G2/M phase: control 26.5%
Method: The BJ or PC-3 cells were treated as described previously, with the exception that 0.15 × 10^6 cells per well were seeded in 6-well plates. After 24 h of treatment, cells were harvested by trypsinization (Biowest, Nuaillé, France, L0931), washed twice, resuspended in PBS, and added to cold 70% ethanol for overnight fixation at −20 °C. Subsequently, cells were centrifuged and resuspended in PBS containing 5 µg/mL of propidium iodide in PBS (Sigma-Aldrich, St. Louis, MO, USA, 4170), 0.1% Triton X-100, and 10 µg/mL of DNAse-free RNAse (A&A Biotechnology, Gdansk, Poland, 1006-10) in the dark for 4 h at 37 °C. FACS analysis was performed using a FACSCanto II flow cytometer and FACSDiva, version 9.0 software (BD Biosciences, San Jose, CA, USA). Flow rate was set to about 1000 events/cells per second. Signals from at least 10,000 events per sample were captured. The percentages of PC-3 cells in cell cycle phases (G0/G1, S, and G2/M) were determined using ModFit LT 4.1.7 (Verity Software House, Topsham, ME, USA).

[1] = Photostationary state (PSS) composition by 19F NMR; type: physicochemical; settings: irradiation 525 nm, DMSO-d6
Source text: Azo compounds have been applied in various fields due to their ability to undergo structural changes, with one of the most interesting applications being the direct conversion of light into mechanical energy. However, azobenzenes generally face two main limitations that hinder their practical use in biological and materials sciences. The first is the need for UV light to induce the E→Z isomerization through π→π* excitation, which can potentially interfere with and damage the surrounding environment. The second limitation is the typically incomplete reverse Z→E photoisomerization, which is induced by irradiation in the visible region. In this region, the n→π* bands of the E and Z isomers largely overlap, making it difficult to achieve E-rich photostationary states (PSSs) after back-switching. These limitations can be overcome by modifying azobenzene in such a way that the n→π* bands of the E and Z isomers are sufficiently separated. If the separation is large enough, the two n→π* bands can be distinct, allowing visible light to selectively isomerize both isomers with high to complete E/Z photoconversions. We are looking for switches that operate within the visible light range of 380–750 nm, which is harmless. Fluorine-substituted azobenzenes are well-suited for designing visible-light-responsive systems, offering stable and bidirectional photoconversions along with tissue-compatible properties. We confirmed that the compounds we synthesized successfully dock with tubulin. In the next step, we tested whether the added azo compound would meet our expectations as a visible light switch. For this purpose, we used NMR spectroscopy. We measured ^19F spectra of (17a–17c, 17e–17g, and 17i–17l) at nine wavelengths from 390 nm to 610 nm to check which wavelengths produce the most Z isomer after exposure (see Section S4.2 in Supplementary Materials). We selected DMSO as the solvent due to its ability to dissolve both polar and nonpolar molecules, which is essential for the analytical methods employed in this study. Its intermediate polarity also makes it a good surrogate for both organic and aqueous solvents. Additionally, DMSO is commonly used for preparing stock solutions, which are then illuminated and diluted into aqueous systems for assessing biological activity. […]
Figure 2 (a) Photostationary state (PSS) compositions for chalcones (17a–17c, 17e–17g, and 17i–17l) determined by ^19F NMR analysis (c ≈ 100 mM in DMSO-d6), presented in a bar chart; (b) representative multiple photoswitching rounds of 60 µM of (17j) in DMSO by pulsed green (525 nm) and blue (430 nm) light illumination. The photochemical stability of the drug is analyzed via repeated cycles of irradiation (software: Microsoft Excel).

COc1cc(/C=C/C(=O)c2cccc(/N=N/c3c(F)cccc3F)c2)cc(OC)c1 [Compound 17j]
growth inhibition (normalized asymptote) (BJ fibroblasts; E conformer, 48 h): 5.3 ± 1.2%
IC50 (BJ fibroblasts; 24 h, E conformer, 24 h treatment): 6.59 ± 0.38 µM
IC50 (BJ fibroblasts; 24 h, Z conformer, 24 h treatment): 10.1 ± 1.4 µM
IC50 (BJ fibroblasts; 48 h, E conformer, 48 h treatment): 2.66 ± 0.15 µM
IC50 (BJ fibroblasts; 48 h, Z conformer, 48 h treatment): 4.02 ± 0.39 µM
growth inhibition (normalized asymptote) (BJ fibroblasts; Z conformer, 24 h): 18.7 ± 9.7%
growth inhibition (normalized asymptote) (BJ fibroblasts; Z conformer, 48 h): 13.3 ± 6.1%
percentage of cells in the G2/M phase (PC-3 cells; 20 µM): 30.2%
percentage of cells in the S phase (PC-3 cells; 30 µM): 28.8%
percentage of cells in the G2/M phase (PC-3 cells; 30 µM): 37.0%
percentage of cells in the S phase (PC-3 cells; 40 µM): 31%
percentage of cells in the G2/M phase (PC-3 cells; 40 µM): 32.1%
share of the Z configuration (PSS) [1]: 73.2%

Reference: publication PMC12844124, “Synthesis and Study of Substituted Chalcones Combined with Fluoroazobenzenes—New Photoswitches for Application in Biological Systems” (Molecules, 2026)
